Data as given in patent US4088772A, “Methanodibenzocycloheptapyrroles” (E. I. Du Pont de Nemours and Company, priority 1975, dated 1978).
Where two headings read alike, the source gives them in different places.

What was measured:
[1] = in vivo; settings: mouse, in vivo, po
Protocol: (§1) Groups of five Carworth CF1 S female mice, 16-20 g each, were fasted 16-22 hours before use. The mice were put in opaque plastic "shoe-box" cages 15-30 min. before injection, and then treated orally with 4, 12, 36, 108 and 324 mg/kg of the compound to be tested as a 13 mg/ml solution in 1% aqueous distilled water solution of methylcellulose (Methocel®). Each dose was given in a standard volume of 0.45 ml. Observations were made at 0.5, 2 and 24 hours after dosing. ED50 values were calculated for each parameter including death (LD50). The ED50 and LD50 values are the doses at which 50% of the naimals would be expected to respond.
(§2) The mouse is placed on a stainless steel wire mesh screen (8 × 12 inches, 3 mesh per inch, 1/4 inch mesh openings) "shoe-box" lid (1 inch high) and is observed for normal activities, such as nose movements, head movements with apparent visual examination of the area, and/or walking around on the screen. Absence of or marked depression of these activities for 5 seconds constitutes loss of exploratory activity.
(§3) The mouse is picked up by the tail and placed on the screen with its head facing the observer. Bilateral eyelid closure of 50% or more two seconds after placement is considered ptosis.
(§4) The mouse is placed with its front paws on the edge of a stainless steel "shoe-box" cover, 1 inch high, covered with adhesive tape. Failure to remove both paws from the cover's edge within 5 seconds constitutes catatonia.
(§5) The observer gently strokes the abdominal musculature of the mouse with thumb and forefinger. Flaccidity (or rarely, tenseness) is recorded.
(§6) The mouse is gently swung by the tail toward a horizontal 12 gauge wire tautly stretched 25 cm above the bench. After the mouse grasps the wire with its forepaws, its posterior end is held directly below the wire. A normal mouse grasps the wire with its forepaws and immediately lifts its hind limbs to the wire. Failure to grasp the wire with the forepaws in both trials constitutes loss of the grip reflex; failure to lift the hind limbs to grasp the wire with at least one hind paw within 5 seconds constitutes loss of the lift reflex.
(§7) The mouse is placed on the bar 10-20 cm horizontally and 9 cm vertically from a Galton whistle adjusted for 13 kc (5 mm on the whistle scale) and is subjected to several short bursts of sound.
(§8) An effective tranquilizer should induce little or no tremor response. […] Tremors include fine or coarse and intermittent or continuous tremors.

[2] = test system: female white mice; assay: animal or person; settings: Mus musculus, po, oral, mice
Protocol: as §1, §2, §3, §4, §5, §6, §7, §8

[3] = test system: phenylquinone-induced writhing; assay: Phenylquinone writhing test (analgesia); format: in vivo, mouse (Carworth CF1 S female); settings: Mus musculus
Excerpt: This mouse test is predictive of analgesic response in humans. [E. Siegmund, R. Cadmus and G. Lee, Proc. Soc.
ED50 values were obtained graphically from the data.

[4] = read-out: Catatonia ED50, Table 1
[5] = read-out: Exploratory Loss Visual ED50, Table 1
[6] = read-out: Muscle Tone ED50, Table 1
[7] = read-out: Reflexes Grip ED50, Table 1
[8] = read-out: Reflexes Lift ED50, Table 1
[9] = read-out: Reflexes Pinna ED50, Table 1

Row | Structure (SMILES) | ED50 [1] [mg/kg] | LD50 at 24 h [1] [mg/kg] | ED50 [2, 4] [mg/kg] | ED50 [2, 5] [mg/kg] | ED50 [2, 6] [mg/kg] | ED50 ([2]; read-out: Ptosis ED50, Table 1) [mg/kg] | ED50 [2, 7] [mg/kg] | ED50 [2, 8] [mg/kg] | ED50 [2, 9] [mg/kg] | ED50 ([3]; po, Table 1, mice) [mg/kg] | ED50 ([1]; Tremors ED50, Table 1, mice) [mg/kg] | ED50 ([3]; Table 1, oral, mice) [mg/kg]
1 | C1=C[C@@H]2C[C@H]1C[C@@H]2CN1C[C@@H]2c3ccccc3[C@@H]3C[C@@]2(C1)c1ccccc13 (relative stereo) [Example 38, 2-(2-Endo-bicyclo[2.2.1]hept-5-enylmethyl)-2,3,8,12b-tetrahydro-1H-3a,8-methanodibenzo[3,4:6,7]cyclohepta[1,2-c]pyrrole] | > 324 | > 324 | 100 | 200 | 200 | 60 | > 324 | 200 | > 324 | 31 |  | 
2 | c1ccc(CCN2C[C@@H]3c4ccccc4[C@@H]4C[C@@]3(C2)c2ccccc24)cc1 (relative stereo) [Example 39, 2-(2-Phenylethyl)-2,3,8,12b-tetrahydro-1H-3a,8-methanodibenzo[3,4:6,7]cyclohepta[1,2-c]pyrrole] | 300 | > 324 | 100 | 200 | > 324 | 200 | > 324 | 100 | 100 | 22 |  | 
3 | c1ccc(OCCN2C[C@@H]3c4ccccc4[C@@H]4C[C@@]3(C2)c2ccccc24)cc1 (relative stereo) [Example 40, 2-(2-Phenoxyethyl)-2,3,8,12b-tetrahydro-1H-3a,8-methanodibenzo[3,4:6,7]cyclohepta[1,2-c]pyrrole] | > 324 | > 324 | 12 | 60 | 20 | 7 | > 324 | 20 | 12 | 5.3 |  | 
4 | COCCN1C[C@@H]2c3ccccc3[C@@H]3C[C@@]2(C1)c1ccccc13 (relative stereo) [Example 41, 2-(2-Methoxyethyl)-2,3,8,12b-tetrahydro-1H-3a,8-methanodibenzo[3,4:6,7]cyclohepta[1,2-c]pyrrole] | > 324 | 300 | 20 | 20 | 36 | 20 | 200 | 36 | 20 | 4.2 |  | 
5 | c1coc(CN2C[C@@H]3c4ccccc4[C@@H]4C[C@@]3(C2)c2ccccc24)c1 (relative stereo) [Example 42, 2-(2-Furylmethyl)-2,3,8,12b-tetrahydro-1H-3a,8-methanodibenzo[3,4:6,7]cyclohepta[1,2-c]pyrrole] | > 324 | 300 | 36 | 60 | 20 | 20 | > 324 | 200 | 60 | 26 |  | 
6 | c1ccc2c(c1)[C@@H]1C[C@@]3(CN(C4CC4)C[C@H]23)c2ccccc21 (relative stereo) [Example 46, 2-Cyclopropyl-2,3,8,12b-tetrahydro-1H-3a,8-methanodibenzo[3,4:6,7]cyclohepta[1,2-c]pyrrole] |  | > 324 | 200 | 200 | 200 | 60 | 300 | 200 | 300 |  | > 324 | 90
7 | c1ccc2c(c1)[C@@H]1C[C@@]3(CN(C4CCC4)C[C@H]23)c2ccccc21 (relative stereo) [Example 47, 2-Cyclobutyl-2,3,8,12b-tetrahydro-1H-3a,8-methanodibenzo[3,4:6,7]cyclohepta[1,2-c]pyrrole] |  | > 324 | 60 | 60 | 60 | 36 | 200 | 60 | 36 |  | > 324 | 9.6
8 | c1ccc2c(c1)[C@@H]1C[C@@]3(CN(C4CCCC4)C[C@H]23)c2ccccc21 (relative stereo) [Example 48, 2-Cyclopentyl-2,3,8,12b-tetrahydro-1H-3a,8-methanodibenzo[3,4:6,7]cyclohepta[1,2-c]pyrrole] |  | > 324 | 36 | 100 | 100 | 60 | 200 | 60 | 60 |  | > 324 | 38
9 | CC(C)N1C[C@@H]2c3ccccc3[C@@H]3C[C@@]2(C1)c1ccccc13 (relative stereo) [Example 49, 2-Isopropyl-2,3,8,12b-tetrahydro-1H-3a, 8-methanodibenzo[3,4:6,7]cyclohepta[1,2-c]pyrrole] |  | 200 | 60 | 60 | 7 | 12 | 200 | 36 | 20 |  | > 324 | 10.8
10 | c1ccc2c(c1)[C@@H]1C[C@@]3(CN(CC4C5CC6CC(C5)CC4C6)C[C@H]23)c2ccccc21 (relative stereo) [Example 53, 2-(2-Adamantylmethyl)-2,3,8,12b-tetrahydro-1H-3a,8-methanodibenzo[3,4:6,7]cyclohepta[1,2-c]pyrrole] | > 524 | > 324 | 36 | 60 | 100 | 300 | > 324 | 300 | 100 | 94 |  | 
11 | c1csc(CN2C[C@@H]3c4ccccc4[C@@H]4C[C@@]3(C2)c2ccccc24)c1 (relative stereo) [Example 54, 2-(2-Thienylmethyl)-2,3,8,12b-tetrahydro-1H-3a,8-methanodibenzo[3,4:6,7]cyclohepta[1,2-c]pyrrole] | > 324 | > 324 | 200 | 200 | 200 | 60 | > 324 | > 324 | 200 | 27 |  | 
12 | c1ccc([C@@H]2C[C@H]2CN2CC3c4ccccc4C4CC3(C2)c2ccccc24)cc1 (relative stereo) [Example 55, 2-(trans-2-Phenylcyclopropylmethyl)-2,3,8,12 b-tetrahydro-1H-3a,8-methanodibenzo[3,4:6,7]cyclohepta[1,2-c]pyrrole] | > 324 | > 324 | 200 | 100 | 100 | 36 | > 324 | 200 | 200 | 48 |  | 
13 | CC(C)(C)N1C[C@@H]2c3ccccc3[C@@H]3C[C@@]2(C1)c1ccccc13 (relative stereo) [Example 56, 2-Tertiarybutyl-2,3,8,12b-tetrahydro-1H-3a,8-methanodibenzo[3,4:6,7]cyclohepta[1,2-c]pyrrole] |  | 300 | 200 | 200 | 100 | 100 | 100 | 60 | 200 |  | 200 | 45
14 | CCCN1C[C@@H]2c3ccccc3[C@@H]3C[C@@]2(C1)c1ccccc13 (relative stereo) [Example 58, 2-n-Propyl-2,3,8,12b-tetrahydro-1H-3a,8-methanodibenzo[3,4:6,7]cyclohepta[1,2-c]pyrrole] |  | 200 | 7 | 7 | 7 | 7 | 60 | 7 | 4 |  |  | 2.9
